Test results as given in paper PMC11614110, “Crystal structure of a short-chain dehydrogenase from Burkholderia cenocepacia J2315 in complex with NADP^+ and benzoic acid” (Acta Crystallographica Section F: Structural Biology …, 2024).

What was measured:
[1] = biological target: T1, BcSDR (short-chain dehydrogenase reductase from B. cenocepacia J2315) (Burkholderia cenocepacia, UniProt B4EFS5); assay: X-ray crystal structure, […] A; assay type: binding; conditions: pH 4.2, 290 K
T1 construct: gene BCAM2128; vector pBG1861; expressed in E. coli BL21(DE3) R3 Rosetta; homodimer
T1 sequence (B4EFS5 1-237): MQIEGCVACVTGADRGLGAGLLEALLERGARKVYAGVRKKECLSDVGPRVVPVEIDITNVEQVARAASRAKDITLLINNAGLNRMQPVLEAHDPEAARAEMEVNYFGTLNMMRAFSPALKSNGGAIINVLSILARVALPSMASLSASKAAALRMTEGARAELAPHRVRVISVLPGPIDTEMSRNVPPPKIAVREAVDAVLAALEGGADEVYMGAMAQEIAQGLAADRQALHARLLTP

[2] = biological target: the molecule itself; assay: crystal structure; sitting-drop vapor diffusion, 290 K; 23.45 mg/ml protein, 5 mM NADP+; 40% PEG 300, 100 mM sodium phosphate dibasic/citric acid pH 4.2; space group P212121, two molecules per asymmetric unit; dimer assignment supported by PDBePISA

NC(=O)c1ccc[n+]([C@@H]2O[C@H](COP(=O)(O)OP(=O)(O)OC[C@H]3O[C@@H](n4cnc5c(N)ncnc54)[C@H](OP(=O)(O)O)[C@@H]3O)[C@@H](O)[C@H]2O)c1 [NADP^+]
X-ray crystal structure, 1.40 A ([1]; 5 mM NADP+ in co-crystallization drop, coenzyme site, both chains): The structure of BcSDR showed clear electron density for NADP^+ in the coenzyme-binding site

O=C(O)c1ccccc1 [benzoic acid]
X-ray crystal structure, 1.40 A ([1]; not added, co-purified ligand, active site, NADP+ bound): BcSDR co-crystallized with a molecule of benzoic acid bound in the active site

B1: short-chain dehydrogenase reductase (SDR) from Burkholderia cenocepacia J2315 (enzyme, Burkholderia cenocepacia (strain J2315))
chain: T1 sequence (B4EFS5 1-237)
notes: putative short-chain dehydrogenase reductase, Burkholderia cenocepacia J2315, UniProt B4EFS5; full-length gene stated to encode amino acids 1-237; Crystallised with NADP+ and a benzoic acid ligand; a phosphate ion lies at the dimer interface; also called BcSDR; His-BcSDR; source: Escherichia coli BL21(DE3) R3 Rosetta, purified (Ni2+ IMAC, SEC on Superdex 75); not shown: His6, N-terminal, kept
binding result [2]: binds
